Series [1] addresses Methionine aminopeptidase 2 (Homo sapiens, UniProt P50579). Nature of the series: Inhibition of recombinant human N-terminal His tagged MetAP-2 using tripeptide Met-Ala-Ser as substrate preincubated for 15 mins followed by substrate addition measured after 45 mins by L-amino acid oxidase enzyme coupled assay.
Series [2] is described as follows: Permeability in human Caco2 cells. The class given is ADME, cell-based. The settings on record: Caco-2, read-out: permeability. Background: Passage across Caco-2 layers is used to estimate intestinal permeability.
Series [3] can be described thus: Thermodynamic solubility of the compound. The settings on record: read-out: Therm_solubility. The class given is physicochemical.

Converted amounts (≈) assume the structure as drawn.

What is called IC50 is the concentration that gives 50% inhibition.

Methionine aminopeptidase 2, sequence (P50579 whole entry): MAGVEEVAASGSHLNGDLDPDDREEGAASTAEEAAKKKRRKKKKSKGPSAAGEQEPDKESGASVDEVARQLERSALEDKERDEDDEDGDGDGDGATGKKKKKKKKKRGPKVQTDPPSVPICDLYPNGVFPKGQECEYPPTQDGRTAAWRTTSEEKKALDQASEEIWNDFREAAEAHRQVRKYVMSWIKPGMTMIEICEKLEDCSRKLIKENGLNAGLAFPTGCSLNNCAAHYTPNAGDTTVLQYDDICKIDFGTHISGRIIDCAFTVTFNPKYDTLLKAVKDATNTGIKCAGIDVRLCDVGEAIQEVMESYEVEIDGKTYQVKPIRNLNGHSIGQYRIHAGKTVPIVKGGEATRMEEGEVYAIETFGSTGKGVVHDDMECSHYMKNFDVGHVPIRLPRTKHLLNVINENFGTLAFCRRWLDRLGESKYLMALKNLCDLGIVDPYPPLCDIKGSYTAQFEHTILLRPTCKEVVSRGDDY

As for `Fc1cccc(OC[C@H]2CCCN2c2ncnc3[nH]ccc23)c1`, the half-inhibitory concentration (IC50) in series [1] is above 50 µM.
Still for that read-out and setting: next, `Clc1ccccc1OC[C@H]1CCCN1c1ncnc2ncccc12`: above 50 µM.
`c1ccc2c(OC[C@H]3CCCN3c3ccnc4ncnn34)cncc2c1`: the Papp in series [2] was 21 ×10⁻⁶ cm/s. For the same molecule, the solubility thermodynamic in series [3] turned out to be 171 µg/mL (≈ 494 µM).

The record behind these values is ChEMBL document CHEMBL4000189, “Novel reversible methionine aminopeptidase-2 (MetAP-2) inhibitors based on purine and related bicyclic templates” (Bioorg Med Chem Lett, 2017).
